Data set [1] has as its system HCT-15. Briefly: Antiproliferative activity against human HCT-15 cells harboring wild type beta-catenin assessed as reduction in cell viability measured after 72 hrs by SRB assay. It counts as functional, cell-based. As to conditions: HCT-15, 72 h.
In data set [2] the test system is HCT-116. The experiment in a line: Antiproliferative activity against human HCT-116 cells harboring beta-catenin mutant assessed as reduction in cell viability measured after 72 hrs by SRB assay. The following applies: HCT-116, 72 h. It counts as functional, cell-based.
The test system of data set [3] is CCD-841CoN. Briefly: Antiproliferative activity against human CCD-841CoN cells assessed as reduction in cell viability measured after 72 hrs by SRB assay. The class given is functional, cell-based.
Data set [4] deals with CCD-18Co. Briefly: Antiproliferative activity against human CCD-18Co cells assessed as reduction in cell viability measured after 72 hrs by SRB assay. It counts as functional, cell-based.
Data set [5] has as its system RKO. Briefly: Antiproliferative activity against human RKO cells harboring wild type beta-catenin assessed as reduction in cell viability measured after 72 hrs by SRB assay. It counts as functional, cell-based.
Data set [6] concerns LS174T. The experiment in a line: Antiproliferative activity against human LS174T cells harboring beta-catenin mutant assessed as reduction in cell viability measured after 72 hrs by SRB assay. It counts as functional, cell-based.
The subject of data set [7] is SW480. Briefly: Antiproliferative activity against human SW480 cells harboring wild type beta-catenin assessed as reduction in cell viability measured after 72 hrs by SRB assay. The following applies: SW480, 72 h. It counts as functional, cell-based.
Data set [8] in a line: Toxicity in BALB/c nude mouse xenografted with human LS174T cells assessed as effect on body weight at 10 to 30 mg/kg, ip administered 3 times per week for 21 days. It counts as organism-based. As to conditions: in vivo, 504 h, dose 10-30 mg/kg, time 21 day.

Consider `COc1cc([C@@H]2c3cc4c(cc3[C@@H](O[C@@H]3O[C@@H]5CO[C@@H](C)O[C@H]5[C@H](O)[C@H]3O)[C@H]3COC(=O)[C@H]23)OCO4)cc(OC)c1O` [ETOPOSIDE], for which the IC50 came to 1800 nM in data set [1]; 500 nM in data set [2]; 7600 nM in data set [3]; 20300 nM in data set [4]; 1900 nM in data set [5]; 900 nM in data set [6]. In addition, the half-inhibitory concentration (IC50) in data set [7] turned out to be 800 nM.

Turning to `CCc1c2c(nc3ccc(OC(=O)N4CCC(N5CCCCC5)CC4)cc13)-c1cc3c(c(=O)n1C2)COC(=O)[C@]3(O)CC` [IRINOTECAN], the IC50 is 2700 nM in data set [1]; 600 nM in data set [2]; 13200 nM in data set [3]; 18500 nM in data set [4]; 700 nM in data set [5]; 700 nM in data set [6]. The IC50 in data set [7] was determined as 3800 nM. Further, the Activity entry in data set [8] is reported as “Toxic”.

The values above are taken from ChEMBL document CHEMBL5137022, “Antitumor Activity of Rutaecarpine in Human Colorectal Cancer Cells by Suppression of Wnt/β-Catenin Signaling” (J Nat Prod, 2022).
